Assay results: patent US12692238B2, “Substituted pyridazinone herbicides” (FMC CORPORATION, priority 2020, dated 2026)
Read-outs that look alike come from different tables or passages of the source.

What was measured:
Type in all cases: in vivo
[1] = test system: ryegrass, Italian (Italian ryegrass, Lolium multiflorum); test: Test A preemergence, ryegrass, Italian; details: Lolium multiflorum, pre-emergence, 240 h, 0 to 100 scale, 10 days, read-out: Plant response rating, Ryegrass, Italian; for pest or weed control at 31 g/ha: 31 g ai/ha; for pest or weed control at 125 g/ha: 125 g ai/ha
In short: (§1)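 Crop and weed plants grown in loam–sand mix were treated with compound in non-phytotoxic solvent plus surfactant, either as a preemergence soil spray after sowing or postemergence at one to two leaves. Injury ratings, 0 to 100 relative to untreated controls, were taken after 10 days.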

[2] = test system: redroot pigweed (Amaranthus retroflexus); test: Test A postemergence, redroot pigweed; details: 10 days
In short: as §1

kochia (Bassia scoparia) = test: Test A postemergence, kochia; details: Bassia scoparia, post-emergence, 240 h, 10 days, read-out: Plant response rating, Kochia; for pest or weed control at 31 g/ha: 31 g ai/ha, postemergence, 0 to 100 scale (0 no effect, 100 complete control); for pest or weed control at 125 g/ha: Postemergence, 125 g ai/ha, 0 to 100 scale
In short: as §1

corn (Zea mays) = test: Test A postemergence, corn; details: Zea mays, post-emergence, 240 h, 10 days; for Corn plant response rating (crop injury, 0 = no effect, 100 = complete kill) at 31 g/ha: 31 g ai/ha; for Corn plant response rating (crop injury, 0 = no effect, 100 = complete kill) at 125 g/ha: 125 g ai/ha
In short: as §1

[3] = test system: barnyardgrass (Echinochloa crus-galli); test: Test A postemergence, barnyardgrass; details: 10 days
In short: as §1

[4] = test system: ragweed (common ragweed, Ambrosia artemisiifolia); test: Test A preemergence, ragweed; details: Ambrosia artemisiifolia, pre-emergence, 240 h, 0 to 100 scale, 10 days, read-out: Plant response rating, Ragweed; for pest or weed control at 31 g/ha: 31 g ai/ha; for pest or weed control at 125 g/ha: 125 g ai/ha
In short: as §1

[5] = test system: ducksalad (Heteranthera limosa); test: Test B flooded paddy test, ducksalad; details: Heteranthera limosa; 250 g ai/ha, Flood; visually evaluated after 10 to 14 days; read-out: Plant response rating, Ducksalad (0 to 100 scale where 0 is no effect and 100 is complete control)
In short: (§2)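 Water-applied treatment of 2-leaf plants in pots kept flooded at 3 cm. Visual control rating (0–100) against untreated plants after 10–14 greenhouse days.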

rice (Oryza sativa) = test: Test B flooded paddy test, rice; details: Oryza sativa; 250 g ai/ha, Flood; visually evaluated after 10 to 14 days; read-out: Plant response rating, Rice (0 to 100 scale where 0 is no effect and 100 is complete control)
In short: as §2

[6] = test system: wheat (Triticum aestivum); test: Test A postemergence, wheat; details: Triticum aestivum, post-emergence, 240 h, 10 days, read-out: Plant response rating, Wheat; for plant injury at 31 g/ha: 31 g ai/ha, postemergence, 0 to 100 scale (0 no effect, 100 complete control); for plant injury at 125 g/ha: Postemergence, 125 g ai/ha, 0 to 100 scale
In short: as §1

[7] = test system: ryegrass, Italian (Italian ryegrass, Lolium multiflorum); test: Test A postemergence, ryegrass, Italian; details: Lolium multiflorum, post-emergence, 240 h, 10 days, read-out: Plant response rating, Ryegrass, Italian; for pest or weed control at 31 g/ha: 31 g ai/ha, postemergence, 0 to 100 scale (0 no effect, 100 complete control); for pest or weed control at 125 g/ha: Postemergence, 125 g ai/ha, 0 to 100 scale
In short: as §1

[8] = test system: ragweed (common ragweed, Ambrosia artemisiifolia); test: Test A postemergence, ragweed; details: Ambrosia artemisiifolia, post-emergence, 240 h, 10 days, read-out: Plant response rating, Ragweed; for pest or weed control at 31 g/ha: 31 g ai/ha, postemergence, 0 to 100 scale (0 no effect, 100 complete control); for pest or weed control at 125 g/ha: Postemergence, 125 g ai/ha, 0 to 100 scale
In short: as §1

[9] = test system: galium (catchweed bedstraw, Galium aparine); test: Test A postemergence, galium; details: Galium, post-emergence, 240 h, 10 days, read-out: Plant response rating, Galium; for pest or weed control at 31 g/ha: 31 g ai/ha, postemergence, 0 to 100 scale (0 no effect, 100 complete control); for pest or weed control at 125 g/ha: Postemergence, 125 g ai/ha, 0 to 100 scale
In short: as §1

[10] = test system: sedge, umbrella (small-flower umbrella sedge, Cyperus difformis); test: Test B flooded paddy test, sedge, umbrella; details: Cyperus difformis; 250 g ai/ha, Flood; visually evaluated after 10 to 14 days; read-out: Plant response rating, Sedge, Umbrella (0 to 100 scale where 0 is no effect and 100 is complete control)
In short: as §2

[11] = test system: barnyardgrass (Echinochloa crus-galli); test: Test A preemergence, barnyardgrass; details: 10 days
In short: as §1

[12] = test system: barnyardgrass (Echinochloa crus-galli); test: Test B flooded paddy test, barnyardgrass; details: Echinochloa crus-galli; 250 g ai/ha, Flood; visually evaluated after 10 to 14 days; read-out: Plant response rating, Barnyardgrass (0 to 100 scale where 0 is no effect and 100 is complete control)
In short: as §2

[13] = test system: blackgrass (Alopecurus myosuroides); test: Test A postemergence, blackgrass; details: Alopecurus myosuroides, post-emergence, 240 h, 10 days, read-out: Plant response rating, Blackgrass; for pest or weed control at 31 g/ha: 31 g ai/ha; for pest or weed control at 125 g/ha: 125 g ai/ha
In short: as §1

[14] = 31 g ai/ha, postemergence, 0 to 100 scale (0 no effect, 100 complete control)
[15] = Postemergence, 125 g ai/ha, 0 to 100 scale
[16] = postemergence, 0 to 100 scale (0 no effect, 100 complete control)
[17] = 125 g ai/ha, 0 to 100 scale (0 no effect, 100 complete control)

SMILES | pest or weed control at 31 g/ha [1] [%] | pest or weed control at 125 g/ha [1] [%] | Plant response rating, Pigweed, Redroot [2, 14] | Plant response rating, Pigweed, Redroot [2, 15] | pest or weed control at 31 g/ha (kochia (Bassia scoparia)) [%] | pest or weed control at 125 g/ha (kochia (Bassia scoparia)) [%] | Corn plant response rating (crop injury, 0 = no effect, 100 = complete kill) at 125 g/ha (corn (Zea mays); Postemergence, 0 to 100 scale) [%] | Plant response rating, Barnyardgrass [3, 15] | pest or weed control at 31 g/ha [4] [%] | pest or weed control at 125 g/ha [4] [%] | pest or weed control at 250 g/ha [5] [%] | plant injury at 250 g/ha (rice (Oryza sativa)) [%] | plant injury at 31 g/ha [6] [%] | plant injury at 125 g/ha [6] [%] | pest or weed control at 31 g/ha [7] [%] | pest or weed control at 125 g/ha [7] [%] | pest or weed control at 31 g/ha [8] [%] | pest or weed control at 125 g/ha [8] [%] | pest or weed control at 31 g/ha [9] [%] | pest or weed control at 125 g/ha [9] [%] | also measured
CC(=O)OCOc1c(C)nn(C)c(=O)c1-c1c2cc(C)ccc2cc2ccc(F)cc12 [Compound 24, 5-[(acetyloxy)methoxy]-4-(2-fluoro-7-methyl-9-anthracenyl)-2,6-dimethyl-3(2H)-pyridazinone] | 50 | 80 | 100 | 100 | 90 | 100 | 20 | 90 | 90 | 90 | 75 | 50 | 0 | 0 | 90 | 90 | 80 | 100 | 100 | 100 | Corn plant response rating (crop injury, 0 = no effect, 100 = complete kill) at 31 g/ha (corn (Zea mays); [16]): 10%; Plant response rating, Barnyardgrass [3, 14]: 80; pest or weed control at 250 g/ha [10]: 80%; Plant response rating, Barnyardgrass ([11]; 31 g ai/ha, 0 to 100 scale): 60; Plant response rating, Barnyardgrass [11, 17]: 90; pest or weed control at 250 g/ha [12]: 70%; pest or weed control at 31 g/ha [13, 16]: 0%; pest or weed control at 125 g/ha ([13]; Postemergence, 0 to 100 scale): 20%
CC(=O)OCOc1c(Cl)nn(C)c(=O)c1-c1c(C)ccc2ccccc12 [Compound 5, 5-[(acetyloxy)methoxy]-6-chloro-2-methyl-4-(2-methyl-1-naphthalenyl)-3(2H)-pyridazinone] | 70 | 100 | 90 | 100 | 30 | 60 | 10 | 80 | 100 | 100 | 80 | 35 | 10 | 30 | 30 | 80 | 80 | 90 | 100 | 100 | Corn plant response rating (crop injury, 0 = no effect, 100 = complete kill) at 31 g/ha (corn (Zea mays); Postemergence, 0 to 100 scale): 0%; Plant response rating, Barnyardgrass ([3]; Postemergence, 31 g ai/ha, 0 to 100 scale): 40; pest or weed control at 250 g/ha [10]: 85%; Plant response rating, Barnyardgrass ([11]; 31 g ai/ha, 0 to 100 scale): 80; Plant response rating, Barnyardgrass [11, 17]: 100; pest or weed control at 250 g/ha [12]: 40%; pest or weed control at 31 g/ha ([13]; Postemergence, 0 to 100 scale): 20%; pest or weed control at 125 g/ha ([13]; Postemergence, 0 to 100 scale): 50%
